Experimental data published in patent US20220324909A1, “THERAPEUTIC PEPTIDES” (COHBAR, INC., priority 2019, published 2022).
Non-standard residues stand in square brackets, D forms with d. No end group written: not given here.

Columns and labels:
[1] = system: Male DIO mice; experiment: Metabolic parameters in diet induced obese (DIO) mice, Example 16; format: in vivo, mouse; conditions: 5 mg/kg twice daily intraperitoneal, 10 days, N = 8
Protocol: Male C57BL/6 mice were maintained on a high fat diet for 18 weeks to develop diet induced obesity. Animals were randomized to treatment groups based on blood glucose levels and body weight. The peptides of the invention were administered to groups of male DIO mice twice daily by intraperitoneal injection at a dose of 5 mg/kg/dose for 10 days (N=8 animals per treatment group). An additional group of male DIO mice (n=8) received vehicle (water) alone administered twice daily by intraperitoneal injection. Body weight, blood glucose levels and food intake were monitored. Body mass distribution (fat vs lean) was determined by quantitative whole body NMR prior to dosing and at the end of dosing.

[2] = system: H4-IIE cells; experiment: Glucose production in cultured H4-IIE cells and insulin dependence; format: cell-based, rat; conditions: 24 h; for Glucose Production, Percent of Control Activity No Insulin: peptide 10 μM alone, relative to untreated cells; for Glucose Production, Percent of Control Activity With Insulin: peptide 10 μM with 800 μM insulin, relative to insulin treated cells
Outline: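 Rat hepatoma cells incubated 24 h with peptides; glucose released into conditioned medium measured colorimetrically at 570 nm. Untreated cells serve as maximal-production reference, with insulin at […] as a modest inhibitor. Values are means of 2-4 independent experiments run in triplicate.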

[3] = system: C2C12 cells; experiment: Caspase 3/7 activity in C2C12 cells; format: cell-based, mouse; conditions: peptide 10 μM, 24 hours, relative to 0.1% DMSO control
Protocol: The effect of the peptides on cell death/survival can be assessed using a caspase-3/7 assay in cultured cells such as mouse myoblast cells. Peptides were initially prepared as 10 mM stock in DMSO, diluted to 1 mM in H2O, and used at a final concentration of 10 μM (0.1% DMSO). […] Staurosporine (Abcam, Cambridge, Mass.) was dissolved at 10 mM in DMSO as a stock solution. Caspase-Glo 3/7 Assay Reagent was purchased from Promega (Madison, Wis.). C2C12 cell line was purchased from American Type Culture Collection (Manassas, Va.). C2C12 cells were grown in DMEM supplemented with 20% FBS with 100 IU/ml penicillin and 100 μg/ml streptomycin. […] C2C12 cells were seeded at 4,000 cells per well on 96-well plates. […] Caspase 3/7 activity was determined using a Caspase-Glo 3/7 Assay kit according to the manufacturer's instructions. Luminescence for each sample well on the plate was measured using a Cytation 3 plate reader (BioTek, Winooski, Vt.). Activity was calculated relative to 0.1% DMSO control.

[4] = system: C2C12 cells; experiment: ATP levels in cultured C2C12 cells (CellTiter-Glo); format: cell-based, mouse; conditions: peptide 10 μM, 3 days with readdition every 24 hours, relative to 0.1% DMSO control
Protocol: The effect of the peptides on cellular metabolism can be assessed using an assay of ATP levels in cultured cells such as mouse myoblast cells. Peptides were initially prepared as 10 mM stock in DMSO, diluted to 1 mM in H2O, and used at a final concentration of 10 μM (0.1% DMSO). […] Lovastatin was prepared as 10 mM stock in 70% Ethanol and used at final concentration of 10 μM containing 0.1% DMSO. CellTiter-Glo® Assay kit was purchased from Promega (Madison, Wis.). […] C2C12 cells were grown in DMEM medium supplemented with 20% FBS with 100 IU/ml penicillin and 100 μg/ml streptomycin. […] C2C12 cells were seeded at 800 cells per well on 96-well plates. […] ATP levels were determined using a CellTiter-Glo Assay kit according to the manufacturer's instructions. Luminescence for each sample well on the plate was measured using a Cytation 3 plate reader (BioTek, Winooski, Vt.). Activity was calculated relative to 0.1% DMSO treated control. The relative standard deviation of the result for the 0.1% DMSO treated control was <5%. […] ATP levels for treatment with lovastatin (10 μM) were <50% of the 0.1% DMSO treated control value.

[5] = molecular target: T1, Apelin Receptor (APJ) (Homo sapiens, UniProt P35414); experiment: β-Arrestin recruitment in CHO-K1 AGTRL1 β-Arrestin cells (PathHunter); format: cell-based; set-up: host or cells: CHO-K1 AGTRL1 β-Arrestin cell line; conditions: peptide 10 μM, 90 min; 500 nM Apelin-13 response = 100%
T1 sequence (P35414 1-380): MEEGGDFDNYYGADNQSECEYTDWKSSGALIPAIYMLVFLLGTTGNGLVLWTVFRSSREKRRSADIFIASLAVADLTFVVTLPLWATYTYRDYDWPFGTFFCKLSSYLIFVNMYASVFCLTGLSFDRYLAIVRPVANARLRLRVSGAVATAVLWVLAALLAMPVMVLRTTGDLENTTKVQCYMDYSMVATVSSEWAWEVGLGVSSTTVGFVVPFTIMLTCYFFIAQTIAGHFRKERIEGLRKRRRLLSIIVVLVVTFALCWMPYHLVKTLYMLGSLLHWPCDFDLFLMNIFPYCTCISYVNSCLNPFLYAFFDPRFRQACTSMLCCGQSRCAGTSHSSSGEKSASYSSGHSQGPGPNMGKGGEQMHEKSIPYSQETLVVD
Protocol: The effect of the peptides on activation of Apelin Receptor (APJ) can be assessed using an assay to monitor β-Arrestin recruitment in cultured cells overexpressing APJ such as CHO-K1, derived from Chinese hamster ovary. β-Arrestin recruitment assays were performed by Eurofins-DiscoverX (Fremont, Calif.) using CHO-K1 AGTRL1 β-Arrestin cell line (co-expressing ProLink tagged human APJ and Enzyme Acceptor tagged β-Arrestin) and PathHunter detection kit. Peptides were initially prepared either as 10 mM stock in DMSO and used at a final concentration of 10 μM (0.1% DMSO). CHO-K1 AGTRL1 β-Arrestin cells were seed onto 384-well plates in standard medium. […] Following 90 min incubation at 37° C., β-Arrestin recruitment in response to various treatments was quantified using a chemiluminescent complementation reporter assay to measure association of tagged human APJ (ProLink tag) and tagged β-Arrestin (Enzyme Acceptor tag).

[6] = molecular target: T1, Apelin Receptor (APJ); experiment: cAMP levels in CHO-K1 AGTRL1 Gi cells, single concentration (HitHunter); format: cell-based; set-up: host or cells: CHO-K1 AGTRL1 Gi cells; conditions: peptide 10 μM with 10 μM forskolin, 30 min; 500 nM Pyr-Apelin-13 response = 100%
Protocol: The effect of the peptides on activation of Apelin Receptor (APJ) can be assessed using an assay to monitor inhibition of cAMP expression in cultured cells overexpressing APJ such as CHO-K1, derived from Chinese hamster ovary. Peptides were initially prepared as 30 mM stock in DMSO and diluted to 3 mM in H2O or directly as 3 mM stock in H2O; used at a final concentration of 10 μM (0-0.1% DMSO). […] CHO-K1 AGTRL1 Gi cells stably overexpressing APJ were purchased from Eurofins-DiscoverX (Fremont, Calif.). CHO-K1 AGTRL1 Gi cells were seeded onto 384-well plates in standard culture medium (F12K+10% Fetal Bovine Serum+antibiotics) at 10,000 cells/well and allowed to adhere overnight at 37° C. in a humidified atmosphere of 5% CO2/95% air. […] Following 30 min incubation at 37° C., cAMP levels in response to various treatments were quantified using HitHunter cAMP kit according to manufactures protocol (Eurofins-DiscoverX); chemiluminescent signal was measured using a Cytation 3 plate reader (BioTek, Winooski, Vt.).

Row | Compound | Difference from Vehicle Control: Decrease from Baseline in Blood Glucose [1] [mg/dL] | Difference from Vehicle Control: Decrease from Baseline in Body Weight [1] [%] | Difference from Vehicle Control: Decrease from Baseline in Fat Mass [1] [g] | Glucose Production, Percent of Control Activity No Insulin [2] [%] | Glucose Production, Percent of Control Activity With Insulin [2] [%] | Caspase 3/7 Activity, Percent of Control Activity [3] [%] | ATP Levels, Percent of Control Activity [4] [%] | β-Arrestin Recruitment, Percent of Apelin-13 Control Activity [5] [%] | cAMP Levels, Percent of Pyr-Apelin-13 Control Activity [6] [%]
1 | 10 (RRMMGMVYQCLCG[dA]; cysteine pairing not given here) [compound 10] | -8.37 | −5.47 | -2.16 | 92.2 | 38.2 | 96.6 | 100.9 | – | –
2 | 13 (RRMMGMVFQELCG[dA]) [compound 13] | – | – | – | 100.9 | 68 | 99.0 | 102.8 | – | –
3 | 18 (RRXXGXVFQCLCGA; (3)..(3) Xaa is Norleucine; (4)..(4) Xaa is Norleucine; (6)..(6) Xaa is Norleucine; (14)..(14) D-Ala) [compound 18] | – | – | – | 103.1 | 140.4 | 93.8 | 95.5 | – | –
4 | CSCC[C@H](NC(=O)CNC(=O)[C@H](CCSC)NC(=O)[C@H](CCSC)NC(=O)[C@H](CCCNC(=N)N)NC(=O)[C@@H](N)CCCNC(=N)N)C(=O)N[C@H](C(=O)N[C@@H](Cc1ccccc1)C(=O)N[C@@H](CCC(N)=O)C(=O)N[C@@H](CO)C(=O)N[C@@H](CC(C)C)C(=O)N[C@@H](CS)C(=O)NCC(=O)N[C@H](C)C(=O)O)C(C)C [compound 15] | – | – | – | 101.4 | 63.9 | 101.6 | 100.4 | 40 | 105
5 | 17 (RRMMGMVFQSLSG[dA]) [compound 17] | – | – | – | 101.7 | 95.5 | 92.0 | 100.0 | – | –
6 | 19 (RRMVFQCLCG[dA]; cysteine pairing not given here) [compound 19] | – | – | – | 100.8 | 68.9 | 100.1 | 93.6 | – | –
7 | 16 (RRMMGMVFQCLSG[dA]) [compound 16] | – | – | – | 99.8 | 56.8 | 93.1 | 94.7 | – | –
8 | 14 (RRMMGMVFQCLEG[dA]) [compound 14] | – | – | – | 104.4 | 159.6 | 100.1 | 102.1 | – | –
9 | 8 (RRMMGMVFQCLCG[dA]; cysteine pairing not given here) [compound 8] | -16.9 | −8.01 | -3.88 | 78.9 | 102.8 | 97.6 | 99.5 | – | –
10 | 12 (RRMMGMVEQCLCG[dA]; cysteine pairing not given here) [compound 12] | -6.75 | −2.89 | -1.73 | 96.4 | 44.8 | 105.1 | 102.6 | – | –
11 | 11 (RRMMGMVAQCLCGA) [compound 11] | -4.91 | −4.05 | -2.34 | 96.6 | 57.5 | 99.1 | 98.0 | – | –
12 | CSCC[C@H](NC(=O)CNC(=O)[C@H](CCSC)NC(=O)[C@H](CCSC)NC(=O)[C@H](CCCNC(=N)N)NC(=O)[C@H](CCCNC(=N)N)NC(=O)[C@@H](N)CCSC)C(=O)N[C@H](C(=O)N[C@@H](Cc1ccccc1)C(=O)N[C@@H](CCC(N)=O)C(=O)N[C@@H](CS)C(=O)N[C@@H](CC(C)C)C(=O)N[C@@H](CS)C(=O)NCC(=O)N[C@@H](CC(C)C)C(=O)O)C(C)C [compound 7] | -20.0 | −3.19 | -0.84 | 54.2 | 64.2 | 109.4 | 106.6 | 91 | 109
